What was measured:
[1] = molecular target: T1, APOL1 G2 (Homo sapiens, UniProt O14791, DEL388-389); test: Rescue of HEK293 cell death caused by overexpression of APOL1 (CellTiter-Glo luminescence), HEK293/T-REx APOL1 G2/clone #2; format: cell-based; settings: reversal of cell death caused by overexpression of APOL1; geometric mean of at least 2 assay runs, † = single assay run (technical duplicate)
T1 construct: expressed in transfected cells; host or cells: HEK293 T-REx clonal lines: HEK T-REx/GCaMP6f/APOL1 G2 K6.3 in A1, HEK293/T-REx APOL1 G2/clone #2 in A2
T1 sequence (O14791 with tags, fused parts or gaps DEL388-389): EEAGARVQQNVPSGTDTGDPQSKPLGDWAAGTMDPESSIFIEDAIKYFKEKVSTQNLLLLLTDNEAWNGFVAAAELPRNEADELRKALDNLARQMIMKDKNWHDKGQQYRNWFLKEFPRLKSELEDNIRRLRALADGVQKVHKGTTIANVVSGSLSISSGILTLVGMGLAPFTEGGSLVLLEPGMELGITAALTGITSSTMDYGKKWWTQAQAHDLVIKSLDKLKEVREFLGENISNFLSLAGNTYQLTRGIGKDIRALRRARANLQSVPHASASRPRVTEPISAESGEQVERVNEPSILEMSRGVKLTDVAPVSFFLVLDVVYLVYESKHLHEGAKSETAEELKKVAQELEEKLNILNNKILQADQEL
Procedure, shortened: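 Rescue EC50s come from four-parameter logistic fits, geometric mean of at least 2 runs on separate days, each in duplicate. Readout: CellTiter-Glo luminescence after 17 h at 37 °C of 5,000 HEK293/T-REx APOL1 G2 clone #2 cells/well, with 6 ng/mL doxycycline to induce APOL1 and 3-fold serial compound dilutions in 0.5% DMSO.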

[2] = molecular target: T1, APOL1 G2; test: APOL1 calcium transport inhibition assay (GCaMP6f calcium influx, FLIPR) in HEK T-REx/GCaMP6f/APOL1 G2 K6.3 cells; format: cell-based; settings: inhibition of APOL1-mediated calcium influx; geometric mean of at least 2 assay runs, † = single assay run (technical duplicate)
Procedure, shortened: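 HEK293 cells stably expressing GCaMP6f, APOL1 G2 induced 6 h with doxycycline (20 ng/mL added), then washed into Ca2+-free Tyrode's buffer pH 7.4. Compounds (8-point dose response) preincubated 10 min at room temperature, then Ca2+ injected to 5 mM final and influx read on FLIPR. AC50 reported as geometric mean of runs.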

Row | Compound | EC50 [1] [nM] | AC50 [2] [nM]
1 | CN(c1ccc(OC[C@@H](O)CNCCc2ccccc2OC(F)F)cc1)S(C)(=O)=O [Compound 101, (S)-N-(4-(3-((2-(difluoromethoxy)phenethyl)amino)-2-hydroxypropoxy)phe-nyl)-N-methylmethanesulfon-amide] | 10100 | 1300
2 | CS(=O)(=O)c1ccc(OC[C@H](O)CNC(Cc2cccc(Cl)c2)C2CC2)cc1 (stereo partly drawn) [Compound 102, (2R)-1-((2-(3-chlorophenyl)-1-cyclopropylethyl)a-mino)-3-(4-(methylsulfonyl)phe-noxy)propan-2-ol] | > 21800 | 2190
3 | CN(c1ccc(NCC(O)CNCCc2cccc(Cl)c2)cc1)S(C)(=O)=O (stereo not shown) [Compound 105, N-(4-((3-((3-chlorophenethyl)a-mino)-2-hydroxypropyl)ami-no)phenyl)-N-methylmethanesulfon-amide] | > 12400 | 946
4 | C[C@@H]1CN(CCc2cccc(Cl)c2)C[C@H]1COc1ccc(S(=O)(=O)CCS(C)(=O)=O)cc1 [Compound 107, (3S,4S)-1-[2-(3-chlorophenyl)ethy 1]-3-{[4-(2-methanesulfonyl-ethanesulfonyl)phenoxy]methyl}-4-methyl-pyrrolidine] | 80.9 | 91.9
5 | C[C@@H]1CN(CCc2cc(Cl)cc(C#N)c2)C[C@H]1COc1ccc(S(=O)(=O)CCS(C)(=O)=O)cc1 [Compound 108, 3-chloro-5-{2-[(3S,4S)-3-{[4-(2-methanesulfonyl-ethanesulfonyl)phenoxy]methyl}-4-methyl-pyrrolidin-1-yl]ethyl}benzonitrile] | 50.4 | 144
6 | C[C@@H]1CN(CC(O)c2cc(Cl)cc(C#N)c2)C[C@H]1COc1ccc(S(C)(=O)=O)cc1 (stereo partly shown) [Compound 120] | 195 | 461
7 | C[C@@H]1CN(CC(O)c2cccc(Cl)c2)C[C@H]1COc1ccc(S(C)(=O)=O)cc1 (stereo partly drawn) [Compound 123, 1-(3-chlorophenyl)-2-((3S,4S)-3-methyl-4-((4-(methylsulfonyl)phenoxy)methyl)pyrrolidin-1-yl)ethan-1-ol] | 300 | 376
8 | C[C@@H]1CN(CC(O)c2cccc(C#N)c2)C[C@H]1COc1ccc(S(C)(=O)=O)cc1 (stereo partly shown) [Compound 126] | 560 | 704
9 | C[C@@H]1CN(CC(O)c2cc(C#N)cc(C#N)c2)C[C@H]1COc1ccc(S(C)(=O)=O)cc1 (stereo partly drawn) [Compound 129, 5-{1-hydroxy-2-[(3S,4S)-3-[(4-methanesulfonylphenoxy)methyl]-4-methylpyrrolidin-1-yl]ethyl}benzene-1,3-dicarbonitrile] | 723 | 1040
10 | C[C@@H]1C[C@H](COc2ccc(S(C)(=O)=O)cc2)CN1CCc1cc(C#N)cc(C#N)c1 [Compound 132] | 43.7 | 510
11 | C[C@@H]1CN(CCc2cccc(Cl)c2)C[C@H]1COc1ccc(S(C)(=O)=O)cc1 [Compound 133, (35,4S)-1-[2-(3-chlorophenyl)ethyl]-3-[(4-methanesulfonylphenoxy)methyl]-4-methylpyrrolidine] | 135 | 38.3
12 | C[C@H]1CC[C@H](COc2ccc(S(C)(=O)=O)cc2)CN1CCc1cccc(Cl)c1 [Compound 134, (25,5S)-1-[2-(3-chlorophenyl)ethyl]-5-[(4-methanesulfonylphenoxy)methyl]-2-methylpiperidine] | 908 | 277
13 | Cc1c(C#N)cc(Cl)cc1CCN1C[C@@H](COc2ccc(S(C)(=O)=O)cc2)C[C@H]1C [Compound 141, 5-chloro-3-{2-[(2R,4S)-4-[(4-methanesulfon-ylphenoxy)meth-yl]-2-methyl-pyrrolidin-1-yl]-ethyl}-2-methyl-benzonitrile] | 78.9 | 737
14 | Cc1c(C#N)cc(Cl)cc1CCN1C[C@@H](COc2ccc(S(C)(=O)=O)cc2)[C@H](C)C1 [Compound 144, 5-chloro-3-{2-[(3S,4S)-3-[(4-methanesulfon-ylphenoxy)meth-yl]-4-methyl-pyrrolidin-1-yl]-ethyl}-2-methyl-benzonitrile] | 256 | 423
